Measured values as given in PubChem BioAssay (NCI).
Where “and” joins values, the source holds several entries; their conditions need not be identical. Equal entries are not always repeated.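 48-hour exposure; five concentrations; linearly interpolated endpoints. Abbreviation: GI50, concentration required for 50% inhibition of growth. TGI denotes the concentration required for complete inhibition of growth.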

Legend:
Test in all cases: inhibition of tumour cell growth, NCI panel, 48 h
CCRF-CEM leukemia = system: CCRF-CEM leukemia
SK-MEL-28 melanoma = system: SK-MEL-28 melanoma
SK-MEL-5 melanoma = system: SK-MEL-5 melanoma
OVCAR-3 ovarian = system: OVCAR-3 ovarian
COLO 205 colon = system: COLO 205 colon
OVCAR-5 ovarian = system: OVCAR-5 ovarian
LOX IMVI melanoma = system: LOX IMVI melanoma
NCI/ADR-RES ovarian = system: NCI/ADR-RES ovarian
SF-295 CNS = system: SF-295 CNS
MDA-MB-435 = system: MDA-MB-435

| SMILES | GI50 (CCRF-CEM leukemia) | TGI (CCRF-CEM leukemia) | GI50 (SK-MEL-28 melanoma) | TGI (SK-MEL-28 melanoma) [µM] | GI50 (SK-MEL-5 melanoma) | TGI (SK-MEL-5 melanoma) | GI50 (OVCAR-3 ovarian) | TGI (OVCAR-3 ovarian) | GI50 (COLO 205 colon) | TGI (COLO 205 colon) | GI50 (OVCAR-5 ovarian) | TGI (OVCAR-5 ovarian) | GI50 (LOX IMVI melanoma) | TGI (LOX IMVI melanoma) | GI50 (NCI/ADR-RES ovarian) | TGI (NCI/ADR-RES ovarian) [µM] | GI50 (SF-295 CNS) | GI50 (MDA-MB-435) | TGI (MDA-MB-435) | TGI (SF-295 CNS) |
| --- | --- | --- | --- | --- | --- | --- | --- | --- | --- | --- | --- | --- | --- | --- | --- | --- | --- | --- | --- | --- |
| CCC(=C/[C@H](C)C/C=C/C(C)=C/[C@@H](C)C(=O)[C@@H](C)[C@H](O)[C@@H](C)CC)/C=C/[C@@H]1OC(=O)C=C[C@H]1C | 0.0201 µM | 0.16 µM | < 0.01 µM | 1.58 | < 0.01 µM | < 0.01 µM | < 0.01 µM | < 0.01 µM | < 0.01 µM | < 0.0166 µM | < 0.01 µM | 1.8 µM | < 0.01 µM | < 0.01 µM | < 0.01 µM | 2.17 | < 0.01 µM | < 0.01 µM | < 0.01 µM |  |
| O=Nc1ccc(NO)c2ccccc12 | 8.04 µM | 58.9 µM | 15.1 µM | 28.6 | 11.7 µM | 24.2 µM | 2.37 µM | 12 µM | 14.7 µM | 29.3 µM | 18.6 µM | 35.5 µM | 2.78 µM | 12.1 µM | 2.92 µM | 15.8 | 14.8 µM | 1.94 µM | 3.57 µM | 28.6 µM |
| Cc1nc(-c2cn3c(n2)-c2ccc(-c4cnn(C(C)(C)C(N)=O)c4)cc2OCC3)n(C(C)C)n1 | 0.338 µM and 0.765 µM | 27.8 µM and > 10 µM | 0.535 µM and 0.414 µM | > 38.3 | 4.1 µM and 2.79 µM | 17.2 µM and > 10 µM | 0.876 µM and 0.582 µM | 16.6 µM and > 10 µM | 0.109 µM and 0.203 µM | 16.6 µM and > 10 µM | 0.17 µM and 0.976 µM | 32.3 µM and > 10 µM | 0.279 µM and 0.74 µM | 17.7 µM and > 10 µM | 8.25 µM and > 7.21 µM | > 83.1 | 0.894 µM and 0.838 µM | 2.31 µM and 2.67 µM | 26.2 µM and > 10 µM | 16.7 µM and > 10 µM |
| O=C1C=CC(=Nc2cc(Br)c(O)c(Br)c2)C=C1 | 3.53 µM | > 100 µM | 31.7 µM | > 100 | 15.6 µM | 32.1 µM | 19.7 µM | > 100 µM | 20 µM | 52 µM | 24.4 µM | 60.5 µM | 21.6 µM | 66.6 µM | 47.2 µM | > 100 | 27 µM | 18.9 µM | > 100 µM | 96.2 µM |
| CC(=O)C1=C(O)C=C2Oc3c(C(=O)/C=C/c4c(Cl)cccc4Cl)c(O)c(C)c(O)c3[C@]2(C)C1=O | 0.573 µM | 5.43 µM | 1.32 µM | 3.83 | 1.5 µM | 3.75 µM | 1.12 µM | 4.22 µM | 2.34 µM | 5.25 µM | 3.09 µM | 8.13 µM | 1.13 µM | 3.64 µM | 0.786 µM | 5.21 | 0.634 µM | 1.81 µM | 3.82 µM | 3.17 µM |
| O=C(c1ccccc1)C(CN1CCCCC1)c1ccccc1 (centres undefined) | 0.301 µM | 2.34 µM | 3.25 µM | 11.4 | 2.38 µM | 6.74 µM | 1.78 µM | 3.25 µM | 1.57 µM | 3.14 µM | 2.67 µM | 5.43 µM | 0.478 µM | 1.7 µM | 1.27 µM | 2.9 | 4.85 µM | 1.67 µM | 4.19 µM | 17.5 µM |
